# In patent publication US20140187430A1, “Compositions and Methods for Identifying Autism Spectrum Disorders” (George Washington University, priority 2010, published 2014):
# “Also recorded” adds a separate entry of the source.
# Legend:
# Format in all cases: cell-based, human
# BCL-2 = assay: qRT-PCR of BCL-2 transcript in LCL after 5-Aza-2-deoxycytidine treatment; details: 5 μM, 48 hours
# Experimental: (§1) LCL, which were obtained from the Autism Genetic Research Exchange (AGRE; Los Angeles, Calif.) were derived from lymphocytes of autistic and normal siblings and cultured as previously described (Hu et al. (2006) BMC Genomics 7, 118). Demethylating treatments were carried out by incubating cells in culture with 5 μM 5-Aza-2-deoxycytidine (Fluka, St. Louis, Mo.) or vehicle control, DMSO (FisherBioTech, Pittsburgh, Pa.) for 48 hours before harvesting cells.
# (§2) Genomic DNA was isolated using the Qiagen DNeasy™ Blood and Tissue Kit (Valencia, Calif.) and used for bisulfite modification for methylation analyses. Total RNA was isolated using TRIzol reagent (Invitrogen, Carlsbad, Calif.) according to the manufacturer's protocol and used for gene expression analyses by quantitative RT-PCR. […]
# (§3) Two candidate genes, BCL-2 and RORA, were chosen for quantitative real-time (RT)-PCR analysis to examine the correlation between expression of mRNA transcript and methylation status as predicted by microarray analysis, as well as to examine the effect of 5-Aza-2-deoxycytidine treatment on transcript levels. […] The qPCR reactions (in triplicate) were analyzed on an ABI Prism 7300 Sequence Detection System and transcript levels of BCL-2 and RORA were quantified and normalized to standard curves obtained using universal 18S rRNA primers.
# RORA = assay: qRT-PCR of RORA transcript in LCL after 5-Aza-2-deoxycytidine treatment; details: 5 μM, 48 hours
# Experimental: as §1, §2, §3
# [1] = tested on: upstream CpG island region of RORA; assay: Methylation-specific PCR (MSP) of upstream CpG island region of RORA in LCL; details: LCL of autistic individuals; 5 μM, 48 hours
# Experimental: as §1
# Two ug of genomic DNA isolated from LCL were treated with sodium bisulfite using the Active Motif MethylDetector kit (Carlsbad, Calif.) according to the manufacturer's specifications. Successful bisulfite treatment and conversion was verified using positive control PCR primers for the p16 (CDKN2A) locus provided in the MethylDetector kit.
# For methylation-specific PCR (MSP), 2 sets of primers spanning a region approximately 300 bp upstream of the first exon of RORA (UHNhscpg0014103; chr15:59309160-59309428) were designed according to assumed differences in methylation status (i.e., fully methylated or fully unmethylated). These primers were previously successful in identifying methylation-specific silencing of RORA in several gastric cancer cell lines (Yamashita et al. (2006) Cancer Science 97, 64-71). Bisulfite-modified genomic DNA was used as a template for PCR and PCR products were resolved by agarose gel electrophoresis.
# [2] = LCL from the "mild" undiagnosed co-twins
# [3] = LCL of autistic individuals, vs DMSO vehicle
smiles,measurement,setting,value
Nc1ncn([C@H]2C[C@H](O)[C@@H](CO)O2)c(=O)n1 [5-Aza-2-deoxycytidine],change in BCL-2 expression level with treatment,BCL-2; [2],no statistically significant increases
same,fold-change in BCL-2 transcript expression following treatment,BCL-2; [3],1.5 fold
same,change in RORA expression level with treatment,RORA; [2],no statistically significant increases
same,fold-change in RORA transcript expression following treatment,RORA; [3],1.8 fold
same,methylated PCR product of RORA promoter region (MSP) following treatment,[1],absence of methylated product; also recorded: absence of methylation
